Assay results published in PubChem BioAssay (NCI).
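Following 48 hours of exposure in 96-well plates, responses at five concentrations were used to interpolate endpoints linearly. Here, GI50 denotes the concentration required for 50% inhibition of growth. Definition used: TGI = concentration required for complete inhibition of growth.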

Experiments:
Assay in all cases: NCI anticancer screen, dose series, 48 h
786-0 renal = system: 786-0 renal
A498 renal = system: A498 renal
A549 NSCLC = system: A549 NSCLC
ACHN renal = system: ACHN renal
BT-549 breast = system: BT-549 breast
CAKI-1 renal = system: CAKI-1 renal
CCRF-CEM leukemia = system: CCRF-CEM leukemia
COLO 205 colon = system: COLO 205 colon
DU-145 prostate = system: DU-145 prostate
EKVX NSCLC = system: EKVX NSCLC
HCC-2998 colon = system: HCC-2998 colon
HCT-116 colon = system: HCT-116 colon
HCT-15 colon = system: HCT-15 colon
HL-60(TB) leukemia = system: HL-60(TB) leukemia
HOP-62 NSCLC = system: HOP-62 NSCLC
HOP-92 NSCLC = system: HOP-92 NSCLC
HS 578T breast = system: HS 578T breast
HT29 colon = system: HT29 colon
IGROV1 ovarian = system: IGROV1 ovarian
K-562 leukemia = system: K-562 leukemia
KM12 colon = system: KM12 colon
LOX IMVI melanoma = system: LOX IMVI melanoma
M14 melanoma = system: M14 melanoma
MALME-3M melanoma = system: MALME-3M melanoma
MCF7 breast = system: MCF7 breast
MDA-MB-231 breast = system: MDA-MB-231 breast
MDA-MB-435 = system: MDA-MB-435
MDA-MB-468 breast = system: MDA-MB-468 breast
MOLT-4 leukemia = system: MOLT-4 leukemia
NCI-H226 lung = system: NCI-H226 lung
NCI-H23 lung = system: NCI-H23 lung
NCI-H460 lung = system: NCI-H460 lung
NCI-H522 lung = system: NCI-H522 lung
NCI/ADR-RES ovarian = system: NCI/ADR-RES ovarian
OVCAR-3 ovarian = system: OVCAR-3 ovarian
OVCAR-4 ovarian = system: OVCAR-4 ovarian
OVCAR-5 ovarian = system: OVCAR-5 ovarian
OVCAR-8 ovarian = system: OVCAR-8 ovarian
PC-3 prostate = system: PC-3 prostate
RPMI-8226 leukemia = system: RPMI-8226 leukemia
RXF 393 renal = system: RXF 393 renal
SF-268 CNS = system: SF-268 CNS
SF-295 CNS = system: SF-295 CNS
SF-539 CNS = system: SF-539 CNS
SK-MEL-2 melanoma = system: SK-MEL-2 melanoma
SK-MEL-28 melanoma = system: SK-MEL-28 melanoma
SK-MEL-5 melanoma = system: SK-MEL-5 melanoma
SK-OV-3 ovarian = system: SK-OV-3 ovarian
SN12C renal = system: SN12C renal
SNB-19 CNS = system: SNB-19 CNS
SNB-75 CNS = system: SNB-75 CNS
SR leukemia = system: SR leukemia
SW-620 colon = system: SW-620 colon
T-47D breast = system: T-47D breast
TK-10 renal = system: TK-10 renal
U251 CNS = system: U251 CNS
UACC-257 melanoma = system: UACC-257 melanoma
UACC-62 melanoma = system: UACC-62 melanoma
UO-31 renal = system: UO-31 renal

## Cc1ccc(-c2nc3ccc(C(=O)N=Nc4c(O)[nH]c5ccc(Cl)cc45)cc3[nH]2)cc1
786-0 renal
  GI50: 20.9 µM
  TGI: 65.4 µM
A498 renal
  GI50: > 100 µM
  TGI: > 100 µM
A549 NSCLC
  GI50: 56.8 µM
  TGI: > 100 µM
ACHN renal
  GI50: > 100 µM
  TGI: > 100 µM
BT-549 breast
  GI50: 96.3 µM
  TGI: > 100 µM
CAKI-1 renal
  GI50: > 100 µM
  TGI: > 100 µM
CCRF-CEM leukemia
  GI50: 5.77 µM
  TGI: > 100 µM
COLO 205 colon
  GI50: 24.6 µM
  TGI: > 100 µM
DU-145 prostate
  GI50: 5.57 µM
  TGI: 88.4 µM
EKVX NSCLC
  GI50: > 100 µM
  TGI: > 100 µM
HCC-2998 colon
  GI50: 18.7 µM
  TGI: > 100 µM
HCT-116 colon
  GI50: 16 µM
  TGI: > 100 µM
HCT-15 colon
  GI50: > 100 µM
  TGI: > 100 µM
HL-60(TB) leukemia
  GI50: > 100 µM
  TGI: > 100 µM
HOP-62 NSCLC
  GI50: 78.4 µM
  TGI: > 100 µM
HOP-92 NSCLC
  GI50: 72.6 µM
  TGI: > 100 µM
HS 578T breast
  GI50: 31.2 µM
  TGI: > 100 µM
HT29 colon
  GI50: 17.6 µM
  TGI: > 100 µM
IGROV1 ovarian
  GI50: 81.9 µM
  TGI: > 100 µM
K-562 leukemia
  GI50: 8.85 µM
  TGI: > 100 µM
KM12 colon
  GI50: > 100 µM
  TGI: > 100 µM
LOX IMVI melanoma
  GI50: 4.81 µM
  TGI: 18.9 µM
M14 melanoma
  GI50: 57.8 µM
  TGI: > 100 µM
MALME-3M melanoma
  GI50: 15.6 µM
  TGI: 43.8 µM
MCF7 breast
  GI50: 5.03 µM
  TGI: 47.4 µM
MDA-MB-231 breast
  GI50: 10.7 µM
  TGI: 40.3 µM
MDA-MB-435
  GI50: 10.1 µM
  TGI: 94.9 µM
MDA-MB-468 breast
  GI50: 5.28 µM
  TGI: 21.8 µM
MOLT-4 leukemia
  GI50: 4.12 µM
  TGI: > 100 µM
NCI-H226 lung
  GI50: > 100 µM
  TGI: > 100 µM
NCI-H23 lung
  GI50: 6.63 µM
  TGI: 28.9 µM
NCI-H460 lung
  GI50: 8.67 µM
  TGI: > 100 µM
NCI-H522 lung
  GI50: 4.3 µM
  TGI: 21.3 µM
NCI/ADR-RES ovarian
  GI50: > 100 µM
  TGI: > 100 µM
OVCAR-3 ovarian
  GI50: 7.29 µM
  TGI: 74.4 µM
OVCAR-4 ovarian
  GI50: 15 µM
  TGI: 51.3 µM
OVCAR-5 ovarian
  GI50: 25.5 µM
  TGI: > 100 µM
OVCAR-8 ovarian
  GI50: > 100 µM
  TGI: > 100 µM
PC-3 prostate
  GI50: 13.4 µM
  TGI: 39.2 µM
RPMI-8226 leukemia
  GI50: 67.7 µM
  TGI: > 100 µM
RXF 393 renal
  GI50: > 100 µM
  TGI: > 100 µM
SF-268 CNS
  GI50: 24.2 µM
  TGI: > 100 µM
SF-295 CNS
  GI50: > 100 µM
  TGI: > 100 µM
SF-539 CNS
  GI50: > 100 µM
  TGI: > 100 µM
SK-MEL-2 melanoma
  GI50: > 100 µM
  TGI: > 100 µM
SK-MEL-28 melanoma
  GI50: 36.1 µM
  TGI: > 100 µM
SK-MEL-5 melanoma
  GI50: > 100 µM
  TGI: > 100 µM
SK-OV-3 ovarian
  GI50: > 100 µM
  TGI: > 100 µM
SN12C renal
  GI50: 38.9 µM
  TGI: > 100 µM
SNB-19 CNS
  GI50: 30.1 µM
  TGI: > 100 µM
SNB-75 CNS
  GI50: 66.5 µM
  TGI: > 100 µM
SR leukemia
  GI50: > 100 µM
  TGI: > 100 µM
SW-620 colon
  GI50: 3.3 µM
  TGI: 26 µM
T-47D breast
  GI50: 44.5 µM
  TGI: > 100 µM
TK-10 renal
  GI50: > 100 µM
  TGI: > 100 µM
U251 CNS
  GI50: 25.3 µM
  TGI: > 100 µM
UACC-257 melanoma
  GI50: > 100 µM
  TGI: > 100 µM
UACC-62 melanoma
  GI50: > 100 µM
  TGI: > 100 µM
UO-31 renal
  GI50: > 100 µM
  TGI: > 100 µM
